Results as given in patent US20230029385A1, “2-METHYL-AZA-QUINAZOLINES” (Bayer Aktiengesellschaft, priority 2019, published 2023).
pIC50: −log10 of the molar value.

Columns and labels:
[1] = target: T1, human SOS1 (hSOS1) with human K-RasG12C (hK-RasG12C) (Homo sapiens, UniProt Q07889); test: hK-RasG12C interaction assay with hSOS1 (Biochemical Assay 1, HTRF); format: binding; conditions: mean, read-out: K-RasG12C- SOS interaction assay IC50 - [mol/l] (mean)
T1 construct: His10-hSOS1; made in house; host or cells: E. coli BL21 (DE3)
T1 sequence (Q07889 with tags, fused parts or gaps): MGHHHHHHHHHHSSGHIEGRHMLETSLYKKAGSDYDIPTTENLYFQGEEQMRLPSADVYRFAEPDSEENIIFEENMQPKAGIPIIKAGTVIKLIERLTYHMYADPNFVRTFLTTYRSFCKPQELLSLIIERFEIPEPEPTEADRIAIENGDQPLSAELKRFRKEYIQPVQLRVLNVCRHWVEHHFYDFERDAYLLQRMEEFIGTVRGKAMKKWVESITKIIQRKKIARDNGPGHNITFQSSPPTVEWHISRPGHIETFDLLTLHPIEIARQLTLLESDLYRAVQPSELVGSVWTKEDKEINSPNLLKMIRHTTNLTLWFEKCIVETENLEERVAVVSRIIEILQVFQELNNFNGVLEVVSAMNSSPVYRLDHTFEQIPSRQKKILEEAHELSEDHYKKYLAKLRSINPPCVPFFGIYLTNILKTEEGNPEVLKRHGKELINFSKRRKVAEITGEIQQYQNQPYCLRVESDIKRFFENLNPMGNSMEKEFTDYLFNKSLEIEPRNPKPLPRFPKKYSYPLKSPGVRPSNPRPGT
Procedure: Biochemical Assay 1: hK-RasG12C Interaction Assay with hSOS1
This assay quantifies the equilibrium interaction of human SOS1 (hSOS1) with human K-Ras^G12C (hK-RasG12C). Detection of the interaction is achieved by measuring homogenous time-resolved fluorescence resonance energy transfer (HTRF) from antiGST-Europium (FRET donor) bound to GST-K-RasG12C to anti-6His-XL665 bound to His-tagged hSOS1 (FRET-acceptor).
The assay buffer containes 5 mM HEPES pH 7.4 (Applichem), 150 mM NaCl (Sigma), 10 mM EDTA (Promega), 1 mM DTT (Thermofisher), 0.05% BSA Fraction V, pH 7.0, (ICN Biomedicals), 0.0025% (v/v) Igepal (Sigma) and 100 mM KF (FLUKA).
The expression and purification of N-terminal GST-tagged hK-RasG12C and N-terminal His-tagged hSOS1 is described below. Concentrations of protein batches used are optimized to be within the linear range of the HTRF signal. A Ras working solution is prepared in assay buffer containing typically 10 nM GST-hK-RasG12C and 2 nM antiGST-Eu(K) (Cisbio, France). A SOS1 working solution is prepared in assay buffer containing typically 20 nM His-hSOS1 and 10 nM anti-6His-XL665 (Cisbio, France). An inhibitor control solution is prepared in assay buffer containing 10 nM anti-6His-XL665 without hSOS1.
(§1) Fifty nl of a 100-fold concentrated solution of the test compound in DMSO are transferred into a black microtiter test plate (384 or 1536, Greiner Bio-One, Germany). For this, either a Hummingbird liquid handler (Digilab, Mass., USA) or an Echo acoustic system (Labcyte, Calif., USA) is used.
(§2) All steps of the assay are performed at 20° C. A volume of 2.5 μl of the Ras working solution is added to all wells of the test plate using a Multidrop dispenser (Thermo Labsystems). After 2 min preincubation, 2.5 μl of the SOS1 working solution are added to all wells except for those wells at the side of the test plate that are subsequently filled with 2.5 μl of the inhibitor control solution. After 60 min incubation the fluorescence is measured with a Pherastar (BMG, Germany) using the HTRF module (excitation 337 nm, emission 1: 620nm, emission 2: 665 nm).
(§3) The ratiometric data (emission 2 divided by emission 1) are normalized using the controls (DMSO=0% inhibition, inhibition control wells with inhibitor control solution=100% inhibition). Compounds are tested in duplicates at up to 11 concentrations (for example 20 μM, 5.7 μM, 1.6 μM, 0.47 μM, 0.13 μM, 38 nM, 11 nM, 3.1 nM, 0.89 nM, 0.25 nM and 0.073 nM). IC50 values are calculated by 4-Parameter fitting using a commercial software package (Genedata Screener, Switzerland).

[2] = target: T2, hK-RasG12C activation by hSOS1 (Homo sapiens, UniProt Q07889); test: hK-RasG12C activation assay by hSOS1 (Biochemical Assay 3, HTRF); conditions: mean; assay 3, loading with fluorescent GTP-analog; read-out: K-RasG12C activation by SOS IC50 - [mol/l] (mean)
T2 construct: His10-hSOS1; made in house; host or cells: E. coli BL21 (DE3)
T2 sequence (Q07889 with tags, fused parts or gaps): T1 sequence (Q07889 with tags, fused parts or gaps)
Source text: Biochemical Assay 3: hK-RasG12C Activation Assay by hSOS1
K-Ras is a small GTPase that can bind GDP and GTP. The guanine nucleotide exchange factor SOS1 catalyzes the activation of K-Ras by promoting the exchange of GDP to GTP. SOS1 binds to K-Ras-GDP thereby opening the GDP-binding pocket to facilitate GDP release. Rebinding of excess nucleotide leads to dissociation of the K-Ras-SOS1 intermediate complex leaving K-Ras loaded with the nucleotide.
This assay quantifies human SOS1- (hSOS1-) mediated loading of human K-Ras^G12C-GDP (hK-RasG12C-GDP) with a fluorescent GTP-analog. Detection of successful loading is achieved by measuring homogenous time-resolved fluorescence resonance energy transfer (HTRF) from antiGST-Terbium (FRET donor) bound to GST-hK-RasG12C (see below) to the loaded fluorescent GTP analog (FRET-acceptor).
The fluorescent GTP-analog EDA-GTP-Dy647P1 (2′/3′-O-(2-Aminoethyl-carbamoyl)-guanosine-5′-triphosphate labelled with Dy647P1 (Dyomics GmbH, Germany)) is synthesized by Jena Biosciences GmbH (Germany) and supplied as a 1mM aqueous solution.
(§4) The assay buffer containes 10 mM HEPES pH 7.4 (Applichem), 150 mM NaCl (Sigma), 5 mM MgCl2 (Sigma), 1 mM DTT (Thermofisher), 0.05% BSA Fraction V, pH 7.0, (ICN Biomedicals), 0.0025% (v/v) Igepal (Sigma).
The expression and purification of N-terminal GST-tagged human K-RasG12C and N-terminal His-tagged hSOS1 is described below. Concentrations of protein batches used are optimized to be within the linear range of the HTRF signal. A hRas working solution is prepared in assay buffer containing typically 100 nM GST-hK-RasG12C and 2 nM antiGST-Tb (Cisbio, France). A hSOS1 working solution is prepared in assay buffer containing typically 20nM hSOS1 and 200 nM EDA-GTP-Dy647P1. An inhibitor control solution is prepared in assay buffer containing 200 nM EDA-GTP-Dy647P1 without hSOS1.
as §1
as §2, with “the hRas” for “the Ras”, “After 10” for “After 2”, “the hSOS1” for “the SOS1”, “After 30” for “After 60”, “1: 620 nm,” for “1: 620nm,”
as §3

[3] = target: T3, hK-RasG12C activation by hSOS1 at high GTP concentration (Homo sapiens, UniProt Q07889); test: hK-RasG12C activation assay by hSOS1 at high GTP concentration (Biochemical Assay 2, HTRF); conditions: mean; assay 2, high concentration of 50 μM GTP; read-out: K-Ras activation by SOS high GTP (off-HTRF) IC50 - [mol/l] (mean)
T3 construct: His10-hSOS1; made in house; host or cells: E. coli BL21 (DE3)
T3 sequence (Q07889 with tags, fused parts or gaps): T1 sequence (Q07889 with tags, fused parts or gaps)
Source text: Biochemical Assay 2: hK-RasG12C Activation Assay by hSOS1 at High GTP Concentration
This assay quantifies human SOS1-mediated nucleotide exchange of human K-Ras^G12C (hK-RasG12C) preloaded with a fluorescent […] and in presence of an excess of free GTP. Loaded hK-RasG12C generates a high HTRF-signal by energy transfer from antiGST-Terbium (FRET donor) bound to hK-Ras to the loaded fluorescent GDP analog (FRET-acceptor). hSOS1 activity exchanges the fluorescent GDP for non-fluorescent GTP and therefore leads to a reduction of the HTRF signal.
The fluorescent GDP-analog EDA-GDP-Dy647P1 (2′/3′-O-(2-Aminoethyl-carbamoyl)-guanosine-5′-diphosphate labelled with Dy647P1 (Dyomics GmbH, Germany)) is synthesized by Jena Biosciences GmbH (Germany) and supplied as a 1 mM aqueous solution.
The expression and purification of N-terminal GST-tagged human K-RasG12C and N-terminal His-tagged human SOS1 is described below. Concentrations of protein batches used are optimized to be within the linear range of the HTRF signal.
Preparation of GST-tagged hK-RasG12C loaded with fluorescent nucleotide is performed as follows: incubation of 11.5 μM hK-Ras^G12C with 5-fold excess GDP-Dy647 nucleotide (54 μM) in 500 μl NLS-buffer (RAS activation Kit Jena Bioscience, Kat. #PR-950) for 10 min at 37° C. Addition of 20 μl 1 M MgCl2 (Sigma) to final 40 mM and store on ice. Purification into buffer (10 mM HEPES pH 7.4 (Applichem), 150 mM NaCl (Sigma), 5 mM MgCl2 (Sigma)) by use of a PD-Minitrap desalting column (GE Healthcare). Concentration of 1 ml purified hK-Ras-GDP-Dy647 is approx. 4-5 μM.
as §4
A Ras working solution is prepared in assay buffer containing typically 80 nM loaded GST-hK-RasG12C-EDA-GDP-Dy647P1 and 2 nM antiGST-Tb (Cisbio, France). A hSOS1 working solution is prepared in assay buffer containing typically 8 nM His-hSOS1 and 100 μM GTP (Jena Bioscience, Germany). An inhibitor control solution is prepared in assay buffer containing the same concentration of hSOS1 without GTP.
Alternatively, the inhibitor control solution is prepared by supplementing the hSOS1 working solution with 20 μM of 6,7-dimethoxy-N-[(1R)-1-(1-naphthyl)ethyl]quinazolin-4-amine which is used to calibrate the assay.
as §1
as §2, with “hSOS1” for “SOS1”, “20” for “60”, “620 nm,” for “620nm,”
as §3

[4] = target: T4, K-Ras-wt activation by SOS (Homo sapiens, UniProt Q07889); test: K-Ras-wt activation by SOS; format: biochemical; conditions: mean; K-Ras wild type; read-out: K-Ras-wt activation by SOS IC50 - [mol/l] (mean)
T4 sequence (Q07889 564-1049): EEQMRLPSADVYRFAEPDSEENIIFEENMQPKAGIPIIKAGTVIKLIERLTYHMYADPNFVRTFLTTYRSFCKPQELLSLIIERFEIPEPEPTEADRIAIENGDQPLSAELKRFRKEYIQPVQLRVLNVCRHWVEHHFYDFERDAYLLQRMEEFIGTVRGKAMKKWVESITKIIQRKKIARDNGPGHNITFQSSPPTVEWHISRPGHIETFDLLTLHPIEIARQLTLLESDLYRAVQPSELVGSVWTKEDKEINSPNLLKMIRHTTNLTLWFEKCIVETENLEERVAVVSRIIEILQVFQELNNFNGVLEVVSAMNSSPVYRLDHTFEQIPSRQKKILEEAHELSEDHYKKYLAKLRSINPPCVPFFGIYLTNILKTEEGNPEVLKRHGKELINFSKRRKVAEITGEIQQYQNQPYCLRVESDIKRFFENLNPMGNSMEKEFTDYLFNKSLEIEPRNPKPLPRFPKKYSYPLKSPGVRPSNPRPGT

[5] = combination of BAY-293 with ARS-853; cited from earlier work

SMILES	pIC50 [1]	pIC50 [2]	pIC50 [3]	pIC50 [4]	anti-proliferative activity in vitro of the combination [5]
CC(=O)N[C@H]1CCN(c2cc3c(N[C@H](C)c4cccc(C(F)F)c4F)nc(C)nc3cn2)C1	7.10	6.84	6.71	7.00	–
Cc1nc(N[C@H](C)c2cccc(C(F)F)c2F)c2cc(N3CCCC3)ncc2n1	6.73	6.60	6.49	6.76	–
CC(=O)N[C@@H]1CCN(c2cc3c(N[C@H](C)c4cccc(C(F)F)c4F)nc(C)nc3cn2)C1	7.11	6.96	6.73	7.03	–
Cc1nc(N[C@H](C)c2cccc(C(F)F)c2F)c2cc(F)ncc2n1	< 4.70	< 4.70	< 4.70	< 4.70	–
CCOc1cc2c(N[C@H](C)c3cccc(C(F)F)c3F)nc(C)nc2cn1	6.87	6.45	6.07	6.51	–
Cc1nc(N[C@H](C)c2cccc(C(F)F)c2F)c2cc(F)nc(C)c2n1	< 4.70	< 4.70	–	< 4.70	–
CC(=O)N[C@@H]1CCN(c2cc3c(N[C@H](C)c4cccc(C(F)F)c4F)nc(C)nc3c(C)n2)C1	7.25	6.68	6.59	7.08	–
CNCc1ccccc1-c1csc(C(C)Nc2nc(C)nc3cc(OC)c(OC)cc23)c1 (stereo not shown) [BAY-293]	–	–	–	–	Synergistic anti-proliferative activity
